The target of experiment [1] is Carboxylic ester hydrolase (Equus caballus, UniProt Q9N1N9). In words: In Vitro AChE and BuChE Inhibition Assays. Conditions: pH 8. As for the experimental part: (§1) Enzyme solutions were prepared to give 2 units/mL in 2 mL aliquots. […] The substrate was added to the assay medium containing enzyme, buffer and DTNB with inhibitor after 15 min of incubation time.
Another experiment deals with Acetylcholinesterase (Electrophorus electricus, UniProt O42275). The experiment is described as follows: In Vitro AChE and BuChE Inhibition Assays. Conditions: pH 8. On the procedure:
as §1

Chain of Acetylcholinesterase (O42275 whole entry): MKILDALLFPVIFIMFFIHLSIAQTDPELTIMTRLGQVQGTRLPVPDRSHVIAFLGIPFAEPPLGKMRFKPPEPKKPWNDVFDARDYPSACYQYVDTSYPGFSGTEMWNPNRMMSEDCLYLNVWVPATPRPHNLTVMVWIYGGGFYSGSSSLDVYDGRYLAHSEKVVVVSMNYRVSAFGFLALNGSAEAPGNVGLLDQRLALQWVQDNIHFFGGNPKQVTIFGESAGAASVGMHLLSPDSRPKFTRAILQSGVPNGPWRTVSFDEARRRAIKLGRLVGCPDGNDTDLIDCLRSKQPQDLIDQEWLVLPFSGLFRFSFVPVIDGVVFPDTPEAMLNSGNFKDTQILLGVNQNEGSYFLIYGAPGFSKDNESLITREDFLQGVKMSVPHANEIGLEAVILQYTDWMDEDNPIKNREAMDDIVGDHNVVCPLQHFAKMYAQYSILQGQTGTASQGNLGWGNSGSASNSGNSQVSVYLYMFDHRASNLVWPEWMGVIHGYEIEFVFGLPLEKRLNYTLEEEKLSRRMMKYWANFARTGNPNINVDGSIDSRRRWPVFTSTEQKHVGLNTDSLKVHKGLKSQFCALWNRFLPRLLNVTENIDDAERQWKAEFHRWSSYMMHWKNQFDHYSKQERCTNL
Chain of Carboxylic ester hydrolase (Q9N1N9 whole entry): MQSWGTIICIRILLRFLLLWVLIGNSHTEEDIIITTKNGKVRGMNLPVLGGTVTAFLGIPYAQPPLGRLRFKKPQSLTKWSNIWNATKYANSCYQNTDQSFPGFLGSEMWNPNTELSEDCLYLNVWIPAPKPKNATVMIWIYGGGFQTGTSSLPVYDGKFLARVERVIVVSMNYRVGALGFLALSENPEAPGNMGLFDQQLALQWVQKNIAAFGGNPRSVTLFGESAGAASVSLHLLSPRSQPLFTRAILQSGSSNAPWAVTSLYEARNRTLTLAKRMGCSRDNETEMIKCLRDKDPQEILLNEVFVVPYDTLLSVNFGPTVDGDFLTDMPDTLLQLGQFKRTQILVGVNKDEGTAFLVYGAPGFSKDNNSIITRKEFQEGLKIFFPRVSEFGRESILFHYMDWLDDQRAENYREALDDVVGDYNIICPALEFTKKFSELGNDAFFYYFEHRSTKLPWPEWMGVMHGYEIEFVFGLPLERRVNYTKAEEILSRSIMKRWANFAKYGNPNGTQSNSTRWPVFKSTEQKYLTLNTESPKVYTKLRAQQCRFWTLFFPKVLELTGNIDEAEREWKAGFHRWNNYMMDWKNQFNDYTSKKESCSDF

By IC50 is commonly meant the concentration at which inhibition is half-maximal. Consider `O=C(CN1CCCC1)Nc1ccc2nc(-c3cc4ccccc4[nH]3)[nH]c(=O)c2c1` [N-(2-(1H-indol-2-yl)-4-oxo-3,4-dihydroquinazolin-6-yl)-2-(pyrrolidin-1-yl)acetamide (3b)], for which the half-inhibitory concentration (IC50) in experiment [1] stood at 3.1 µM; against Acetylcholinesterase it was 0.327 µM.
The like results for `CCN(CC)CCC(=O)Nc1ccc2nc(-c3cc4ccccc4[nH]3)[nH]c(=O)c2c1` [N-(2-(1H-indol-2-yl)-4-oxo-3,4-dihydroquinazolin-6-yl)-3-(diethylamino)propanamide (3f)] were, in that order, 2.43 µM and 0.276 µM.
On to `CCN(CC)CC(=O)Nc1ccc2nc(-c3cc4ccccc4[nH]3)[nH]c(=O)c2c1` [N-(2-(1H-indol-2-yl)-4-oxo-3,4-dihydroquinazolin-6-yl)-2-(diethylamino)acetamide (3a)], for which the IC50 in experiment [1] is 14.8 µM; against Acetylcholinesterase, 0.503 µM.
Taken in the same sequence, the figures for `O=C(CCN1CCCC1)Nc1ccc2nc(-c3cc4ccccc4[nH]3)[nH]c(=O)c2c1` [N-(2-(1H-indol-2-yl)-4-oxo-3,4-dihydroquinazolin-6-yl)-3-(pyrrolidin-1-yl)propanamide (3g)] were 0.403 µM and 0.1 µM.
The like results for `O=C(CN1CCCCC1)Nc1ccc2nc(-c3cc4ccccc4[nH]3)[nH]c(=O)c2c1` [N-(2-(1H-indol-2-yl)-4-oxo-3,4-dihydroquinazolin-6-yl)-2-(piperidin-1-yl)acetamide (3c)] were, in that order, 10.2 µM and 0.148 µM.
The like results for `O=C(CCN1CCOCC1)Nc1ccc2nc(-c3cc4ccccc4[nH]3)[nH]c(=O)c2c1` [N-(2-(1H-indol-2-yl)-4-oxo-3,4-dihydroquinazolin-6-yl)-3-morpholinopropanamide (3i)] were, in that order, 51.6 µM and 1.26 µM.
Regarding `CCN(CC)CCCNc1nc(-c2cc3ccccc3[nH]2)nc2ccccc12` [N1-(2-(1H-indol-2-yl)quinazolin-4-yl)-N3,N3-diethylpropane-1,3-diamine (9b)], the IC50 (in experiment [1]; against Acetylcholinesterase) was over 10 µM throughout.
With `CN1CCN(CC(=O)Nc2ccc3nc(-c4cc5ccccc5[nH]4)[nH]c(=O)c3c2)CC1` [N-(2-(1H-indol-2-yl)-4-oxo-3,4-dihydroquinazolin-6-yl)-2-(4-methylpiperazin-1-yl)acetamide (3e)], the half-maximal inhibitory concentration (IC50) (in experiment [1]; against Acetylcholinesterase) was over 10 µM in each case.
Regarding `O=C(CCN1CCCCC1)Nc1ccc2nc(-c3cc4ccccc4[nH]3)[nH]c(=O)c2c1` [N-(2-(1H-indol-2-yl)-4-oxo-3,4-dihydroquinazolin-6-yl)-3-(piperidin-1-yl)propanamide (3h)], the IC50 in experiment [1] is 7.32 µM; on Acetylcholinesterase it was 0.021 µM.
Taken in the same sequence, the figures for `CN1CCN(CCC(=O)Nc2ccc3nc(-c4cc5ccccc5[nH]4)[nH]c(=O)c3c2)CC1` [N-(2-(1H-indol-2-yl)-4-oxo-3,4-dihydroquinazolin-6-yl)-3-(4-methylpiperazin-1-yl)propanamide (3j)] were over 10 µM and over 10 µM.
The like results for `CN(C)CCCNc1nc(-c2cc3ccccc3[nH]2)nc2ccccc12` [N1-(2-(1H-indol-2-yl)quinazolin-4-yl)-N3,N3-dimethylpropane-1,3-diamine (9a)] were, in that order, over 10 µM and over 10 µM.
The like results for `O=C(CN1CCOCC1)Nc1ccc2nc(-c3cc4ccccc4[nH]3)[nH]c(=O)c2c1` [N-(2-(1H-indol-2-yl)-4-oxo-3,4-dihydroquinazolin-6-yl)-2-morpholinoacetamide (3d)] were, in that order, 32.2 µM and 2.02 µM.
With `O=c1[nH]c(-c2cc3ccccc3[nH]2)nc2ccccc12` [2-(2-Indolyl-)-4(3H)-quinazolines (2IQ)], the IC50 (in experiment [1]; on Acetylcholinesterase) was over 10 µM each time.

For the origin of these results see BindingDB's records for doi:10.3109/14756366.2012.663363 (Sun Yat-Sen University, 2013).
